Measurements published in US20200360322A1, “FORMULATIONS AND DOSAGE FORMS FOR ENHANCING PERFORMANCE OR RECOVERY FROM STRESS” (ACTIVATE BIO PHYSICS CORP., priority 2017, published 2020).

Columns and labels:
[1] = four- to seven-day alcohol poisoning or acute barbiturate poisoning
[2] = system: animal after a 10-minute stop of blood flow; conditions: cited from earlier work
[3] = target: SUCNR1 (Homo sapiens, UniProt Q9BXA5); conditions: cited from earlier work
Chain of SUCNR1 (Q9BXA5 whole entry, species assumed): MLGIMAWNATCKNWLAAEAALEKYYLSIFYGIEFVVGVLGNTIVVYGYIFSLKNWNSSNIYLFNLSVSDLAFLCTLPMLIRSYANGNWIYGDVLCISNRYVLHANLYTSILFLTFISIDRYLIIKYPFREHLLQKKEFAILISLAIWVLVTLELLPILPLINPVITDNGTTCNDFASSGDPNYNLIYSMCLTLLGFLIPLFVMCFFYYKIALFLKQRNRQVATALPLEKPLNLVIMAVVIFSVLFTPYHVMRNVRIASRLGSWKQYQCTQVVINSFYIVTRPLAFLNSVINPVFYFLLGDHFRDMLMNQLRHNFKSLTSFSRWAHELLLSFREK

## O=C(O)CCC(=O)O [natural conformer of succinic acid, succinic acid]
[1]
  severe intoxication: contributes to the prevention of severe intoxication

## O=C([O-])CCC(=O)[O-].[Na+].[Na+] [sodium succinate]
[2]; abdominal injection after the stop of blood flow
  condition of the central nervous system: not only fails to improve, but can aggravate, the condition of the central nervous system

## O=C(O)CCC(=O)O [succinate]
[3]
  concentration in interstitial fluid and blood sufficient for SUCNR1 activation and HIF dimer stabilization: 2.10^−4 mol
  concentration needed to activate SUCNR1 or to stabilize HIF: 150 ± 180 µmol

## O=C(O)CCC(=O)O [succinic acid]
[2]; oral administration
  central nervous system recovery: improves the central nervous system's recovery
